Assay results as given in patent publication EP0837859B1, “TETRAHYDROFURAN ANTIFUNGALS” (SCHERING CORPORATION, priority 1995, dated 1997).

Test system: 11 strains of C. albicans and tropicalis
Test: in vitro antifungal activity in EMEM (geometric mean MIC)
Assay type: cell-based
Details: Candida albicans, read-out: geometric mean MICs

MIC: ≥ 0.01 µg/mL
SMILES: CC[C@@H]([C@H](C)O)n1ncn(-c2ccc(N3CCN(c4ccc(OC[C@H]5CC[C@](Cn6cncn6)(c6ccc(F)cc6F)O5)cc4)CC3)cc2)c1=O
